For one molecule, IC50 results are on record in ChEMBL document CHEMBL3792380, “A sub-milligram-synthesis protocol for in vitro screening of HDAC11 inhibitors” (Bioorg Med Chem Lett, 2016).

The IC50 is the concentration at which inhibition is half-maximal. Read a high IC50 as lower potency.

For this assay, the target named is T1, Histone deacetylase 11 (Homo sapiens, UniProt Q96DB2).
T1 sequence (Q96DB2 whole entry): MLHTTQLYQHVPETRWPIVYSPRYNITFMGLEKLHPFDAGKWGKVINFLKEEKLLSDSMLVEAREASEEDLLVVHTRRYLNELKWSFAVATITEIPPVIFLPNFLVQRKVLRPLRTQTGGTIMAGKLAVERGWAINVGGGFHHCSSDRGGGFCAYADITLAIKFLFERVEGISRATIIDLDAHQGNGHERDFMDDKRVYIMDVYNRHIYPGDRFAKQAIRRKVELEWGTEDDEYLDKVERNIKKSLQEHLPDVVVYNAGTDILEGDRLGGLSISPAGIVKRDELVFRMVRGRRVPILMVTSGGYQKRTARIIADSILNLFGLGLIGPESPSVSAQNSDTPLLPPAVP
Nature of the assay: Inhibition of His-tagged human HDAC11 expressed in Sf9 cells using Ac-Arg-Gly-Lys(Ac)-AMC as substrate by fluorometric assay.

`O=C(/C=C/c1cn([C@H]2C[C@@H](CO)N(Cc3ccccc3)C2)nn1)NO` returned an IC50 of 1200 nM.
